# Measurements: patent publication US20050282893A1 (priority 2004, published 2005)
# Values joined by “and” are separate entries in the source; they are usually repeats but may differ in a detail not shown here. Identical values can stand only once. Like-named read-outs stand apart in the source and are kept apart here. Marks after values point to notes of the source that are not given here.
# Tests used:
# FaDu cells = assay: Paclitaxel cytotoxicity (SRB method) in hTR antisense-transfected FaDu cells; format: cell-based; conditions: Homo sapiens, paclitaxel 96 hours
# Protocol: Effect of hTR antisense on the cytotoxic effect of […]. Two clones of cells that were stably transfected with the hTR antisense were studied. The cytotoxic effect of paclitaxel was quantified using the SRB method, which measures the total cellular proteins. The cells transfected with hTR antisense were treated with IPTG for 44 (clone#1) to 57 (clone #2) days, and then with paclitaxel for 96 hours.
# [1] = system: human pharynx FaDu xenografts
# Protocol: Xenografts were formed by subcutaneous injection of 106 viable tumor cells in 0.1 ml physiologic saline in the right and left flank areas, and were allowed to grow for about 14 days to reach a size of >15 mm^3 before drug treatment was started. […] The saline control group received injections of 200 μl/day of physiological saline for five consecutive days. The paclitaxel group received injections of 10 mg/kg/day paclitaxel dissolved in Cremophor and ethanol (i.e., Taxol) in a volume of 200 μl for five consecutive days. […] Animal weights and tumor sizes were measured on days 1, 3, 6, 8, and 10 after initiation of the paclitaxel treatment.
# The antitumor effect of the drug treatments was measured in three ways. The first was the reduction in tumor size. Tumor sizes were determined by first preparing a mold of the extruding tumor using Jeltrate, a rapidly setting molding material, and then preparing and weighing the countermold. Second, the apoptotic effect was measured. The animals were euthanized on day 10, and the tumors were harvested and fixed in formalin. Histologic sections of 5-micron thickness were prepared and stained with hematoxylin and eosin. The tumor sections were evaluated morphologically for tumor cell density, and density of apoptotic cells. Because apoptotic cells disappear over time, the density of non-apoptotic cells is a secondary indicator of apoptosis. Cell densities were determined by counting the number of cells in four randomly selected microscopic fields at 400× magnification, using image analysis procedures (Song, et al., Proc. Natl. Acad. Sci. USA, 97:8658-8663, 2000). Third, the ability of drug treatment to prolong the survival time was measured. For this study, the animals were monitored for 100 days, or until moribundity, defined by a tumor length exceeding 1.0 cm, was reached.
# telomerase [2] = target: T1, telomerase (Homo sapiens, UniProt O14746); assay: Modified TRAP assay, telomerase activity in cell lysate (cell extract); format: biochemical; conditions: mean ± SD, read-out: IC50, inhibition of telomerase activity
# Protocol: (§1) Inhibition of telomerase activity in cell lysates and intact cells. The modified Telomeric Repeat Amplification Protocol (TRAP) assay (Gan, et al., Pharm. Res., 18:488-493, 2001) was used to detect telomerase activity in cell lysate. The telomerase activity in intact cells was measured using intracellular TRAP, as follows. Cells (1×10^5) were washed twice with PBS and centrifuged. The cell pellet was resuspended in 100 μl of serum-free RPMI 1640 containing 5 u/ml of Streptolysin O, 2 μM of TS primer, and 50 μM of dNTP, and incubated at room temperature for 5 min. The enzyme streptolysin O was used to increase the cell membrane permeability to the TS primer. Upon entering a cell, the TS primer was elongated by the intracellular telomerase in situ. The elongated TS primer was then isolated from the cells and used as the template for PCR amplification. Then 200 μl of RPMI 1640 medium containing 10% FBS was added to the cells to stop the permeating process. The mixture was incubated at 30° C. for 30 min to allow the extension of intracellular TS primer by telomerase. The cells were then lyzed and the cell lysates, which contained the already extended TS primer, was directly analyzed by TRAP.
# Treatment Protocol. Treatment with suramin or AZT was initiated after cells were allowed to attach to the growth surface in culture flasks. […]
# Target sequence in this assay (O14746 whole entry): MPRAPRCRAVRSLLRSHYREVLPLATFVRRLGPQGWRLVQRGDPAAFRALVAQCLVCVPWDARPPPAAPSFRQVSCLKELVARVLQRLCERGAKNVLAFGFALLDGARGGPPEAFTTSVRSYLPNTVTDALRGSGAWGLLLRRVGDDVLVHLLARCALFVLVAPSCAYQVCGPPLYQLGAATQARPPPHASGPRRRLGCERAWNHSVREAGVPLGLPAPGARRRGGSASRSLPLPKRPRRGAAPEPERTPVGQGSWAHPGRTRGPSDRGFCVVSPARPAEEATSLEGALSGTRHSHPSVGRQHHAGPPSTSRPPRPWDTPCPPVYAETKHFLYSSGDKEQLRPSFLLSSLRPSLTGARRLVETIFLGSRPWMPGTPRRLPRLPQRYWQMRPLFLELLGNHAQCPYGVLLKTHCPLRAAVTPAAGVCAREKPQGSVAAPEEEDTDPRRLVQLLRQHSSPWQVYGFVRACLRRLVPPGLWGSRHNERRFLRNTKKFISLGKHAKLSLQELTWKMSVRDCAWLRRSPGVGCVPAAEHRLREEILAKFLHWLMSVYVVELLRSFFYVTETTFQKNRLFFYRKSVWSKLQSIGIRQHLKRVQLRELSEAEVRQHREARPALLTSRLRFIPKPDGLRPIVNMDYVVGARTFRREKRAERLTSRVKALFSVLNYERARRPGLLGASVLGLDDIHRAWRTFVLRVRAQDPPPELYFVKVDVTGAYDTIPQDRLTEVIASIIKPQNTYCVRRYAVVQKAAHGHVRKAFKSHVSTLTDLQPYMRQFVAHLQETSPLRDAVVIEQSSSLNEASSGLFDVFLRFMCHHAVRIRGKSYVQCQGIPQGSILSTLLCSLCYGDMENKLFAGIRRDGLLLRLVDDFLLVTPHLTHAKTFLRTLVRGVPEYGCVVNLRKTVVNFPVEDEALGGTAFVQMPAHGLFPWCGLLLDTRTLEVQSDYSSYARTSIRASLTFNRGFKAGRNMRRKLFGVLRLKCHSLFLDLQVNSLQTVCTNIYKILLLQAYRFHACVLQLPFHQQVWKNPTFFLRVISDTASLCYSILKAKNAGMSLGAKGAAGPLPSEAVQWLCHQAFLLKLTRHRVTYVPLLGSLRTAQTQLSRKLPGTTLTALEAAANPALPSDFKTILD
# Target sequence in this assay (O60832 whole entry partner): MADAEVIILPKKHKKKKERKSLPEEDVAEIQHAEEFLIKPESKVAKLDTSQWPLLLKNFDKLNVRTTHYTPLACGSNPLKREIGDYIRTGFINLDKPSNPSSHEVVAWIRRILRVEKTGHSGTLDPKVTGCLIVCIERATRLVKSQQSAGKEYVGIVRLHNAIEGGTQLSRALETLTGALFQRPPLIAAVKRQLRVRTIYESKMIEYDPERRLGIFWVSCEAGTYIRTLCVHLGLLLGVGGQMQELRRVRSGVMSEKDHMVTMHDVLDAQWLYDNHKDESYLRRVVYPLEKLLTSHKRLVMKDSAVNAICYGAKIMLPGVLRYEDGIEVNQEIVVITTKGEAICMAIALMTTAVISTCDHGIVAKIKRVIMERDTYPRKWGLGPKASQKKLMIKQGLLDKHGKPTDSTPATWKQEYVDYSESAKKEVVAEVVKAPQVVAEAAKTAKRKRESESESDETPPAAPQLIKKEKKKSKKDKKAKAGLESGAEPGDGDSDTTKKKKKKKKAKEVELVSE
# Target sequence in this assay (Q9NPE3 whole entry partner): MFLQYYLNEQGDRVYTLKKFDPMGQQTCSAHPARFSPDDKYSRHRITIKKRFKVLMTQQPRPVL
# Target sequence in this assay (Q9NX24 whole entry partner): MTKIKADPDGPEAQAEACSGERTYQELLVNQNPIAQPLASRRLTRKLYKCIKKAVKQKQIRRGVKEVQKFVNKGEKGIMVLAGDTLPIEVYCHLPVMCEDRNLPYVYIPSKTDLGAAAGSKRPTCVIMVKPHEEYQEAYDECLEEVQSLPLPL
# Target sequence in this assay (Q9NY12 whole entry partner): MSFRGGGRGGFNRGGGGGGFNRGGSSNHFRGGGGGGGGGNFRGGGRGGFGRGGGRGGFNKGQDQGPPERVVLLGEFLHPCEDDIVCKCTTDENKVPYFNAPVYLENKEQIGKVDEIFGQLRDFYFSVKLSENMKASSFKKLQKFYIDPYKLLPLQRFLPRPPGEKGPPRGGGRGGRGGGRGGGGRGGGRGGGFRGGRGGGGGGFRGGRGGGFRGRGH
# telomerase [3] = target: T1, telomerase; assay: Intracellular TRAP, telomerase activity in intact cells; format: cell-based; conditions: mean ± SD, read-out: IC50, inhibition of telomerase activity
# Target sequence in this assay (O14746 whole entry): as the sequence (O14746 whole entry) above
# Target sequence in this assay (O60832 whole entry partner): as the sequence (O60832 whole entry partner) above
# Target sequence in this assay (Q9NPE3 whole entry partner): as the sequence (Q9NPE3 whole entry partner) above
# Target sequence in this assay (Q9NX24 whole entry partner): as the sequence (Q9NX24 whole entry partner) above
# Target sequence in this assay (Q9NY12 whole entry partner): as the sequence (Q9NY12 whole entry partner) above
# [4] = system: telomere length in FaDu and PC3 cells; assay: Telomere length in cultured cells after prolonged treatment (TALA / FISH); format: cell-based, human; conditions: prolonged treatment (7-15 weeks)
# Description: Measurement of telomere length in cultured cells. Two methods were used to measure telomere length. The first method was a solution hybridization based telomere amount and length assay (TALA) (Gan, et al., Pharm. Res., 18:1655-1659, 2001) that measures the mean length of the terminal restriction fragments (TRF). The second method was fluorescence in situ hybridization (FISH) to detect telomere signal and to estimate the approximate length of individual telomere structures at the end of chromosomes. The FISH method is as described in U.S. patent application Ser. No. 09/587,662 and Gan, et al., 2001.
# Treatment Protocol. Treatment with suramin or AZT was initiated after cells were allowed to attach to the growth surface in culture flasks. On the day of experiments, the culture medium was removed and replaced with inhibitor-containing medium.
# telomerase [5] = target: T1, telomerase; assay: Telomerase IC50 determination, general method; format: biochemical; conditions: read-out: IC50 against telomerase
# Description: One method used to identify compounds of the invention that inhibit telomerase activity involves placing cells, tissues, or preferably a cellular extract or other preparation containing telomerase, in contact with several known concentrations of a test compound in a buffer compatible with telomerase activity. […] Other methods for determining the inhibitory concentration of a compound of the invention against telomerase can be employed as will be apparent to those of skill in the art based on the disclosure herein.
# Target sequence in this assay (O14746 whole entry): as the sequence (O14746 whole entry) above
# FaDu tumor = assay: Telomere length by FISH in FaDu tumors implanted in mice; format: in vivo
# Protocol: Treatment protocol. FaDu cells (0.5˜1×10^6 cells in a volume of 100 μl) were implanted subcutaneously in male BALB/c nu/nu mice. […] The first dose was administered immediately after tumor implantation, with repeat doses given twice a week thereafter. […] Frozen tissue sections were analyzed for telomere length in individual cells using fluorescent in situ hybridization. About 10 microscope fields at 400-fold magnification were randomly chosen for each section, and the percentage of tumor cells with attenuated or lost telomere signals were counted.
# FaDu tumors = assay: Low-dose suramin, tumor size in mice implanted with FaDu tumors; format: in vivo; conditions: one of six animals; suramin 10 mg/kg ip twice-weekly for 6 weeks
# Protocol: Treatment Protocol. Immunosuppressed mice were injected subcutaneously in the thigh area with 5×10^5 FaDu cells. […] Tumor sizes were observed twice-weekly.
# [6] = Suramin plasma pharmacokinetics in beagle dogs; format: in vivo; conditions: 6.75 mg/kg iv infusion over 30 minutes
# Description: Treatment protocol. […] The animals were cannulated in the cephalic veins of both front legs.
# [7] = Intravesical suramin in dogs: bladder contents, bladder wall and plasma concentrations; format: in vivo; conditions: for concentration at 120 min: beagle, dog, bladder wall tissue, other: intravesical, 6 mg/ml
# Protocol: Treatment protocol Five beagle dogs, weighing 9.0±0.4 kg, were used. The animals were cannulated in a cephalic vein for administration of anesthetics, and in a jugular vein for blood sampling. A urethral catheter was inserted for dose instillation and sampling of the bladder contents. […] Concentrations of the bladder contents and systemic plasma were sampled at frequent intervals for 120 minutes, at which time the bladder tissue was harvested and the animal sacrificed. Tissue sections of approximately 2 cm×2 cm surface area were cut from the bladder wall, and rapidly frozen on a flat stainless steel plate cooled on dry ice. The outer edges of the tissue samples were trimmed to avoid contamination with instillation fluid, and the frozen tissues cut into 40 μm sections parallel to the urothelial surface.
# [8] = human patients; cited from earlier work
# in vivo = conditions: BALB/c nu/nu, mouse, plasma, intravenous, 10 mg/kg
# RCC45 = assay: 5-Fluorouracil inhibition of BrdU incorporation (ELISA), RCC45; format: cell-based
# Protocol: (§2) A study was performed using two renal cell carcinoma cells (RCC45 and RCC54). 5-Fluorouracil was used as the chemotherapeutic agent. Cells were treated with 5-fluorouracil for 96 hours, with and without PPS. The drug effect was measured as inhibition of the incorporation of a DNA precursor (bromodeoxyuridine or BrdU) using ELISA.
# RCC54 = assay: 5-Fluorouracil inhibition of BrdU incorporation (ELISA), RCC54; format: cell-based
# Protocol: as §2
# [9] = system: stage IIIB/IV nonsmall cell lung cancer; conditions: 290 patients; cited from earlier work
# telomerase [10] = target: T1, telomerase; assay: Telomerase activity after PPS exposure, modified quantitative TRAP assay; format: cell-based
# Protocol: as §1
# Target sequence in this assay (O14746 whole entry): as above
# Target sequence in this assay (O60832 whole entry partner): as the sequence (O60832 whole entry partner) above
# Target sequence in this assay (Q9NPE3 whole entry partner): as the sequence (Q9NPE3 whole entry partner) above
# Target sequence in this assay (Q9NX24 whole entry partner): as the sequence (Q9NX24 whole entry partner) above
# Target sequence in this assay (Q9NY12 whole entry partner): as the sequence (Q9NY12 whole entry partner) above
# Treatment Protocol. Treatment with PPS was initiated after cells were allowed to attach to the growth surface in culture flasks. On the day of experiments, the culture medium was removed and replaced with inhibitor-containing medium. Drug concentrations of 0, 0.1, 1, 10, 100, 1000 μg/ml of PPS were employed. Telomerase activity was measured by the modified quantitative TRAP assay.
# [11] = system: renal cell carcinoma cells (RCC45 and RCC54); assay: PPS single agent cytotoxicity, BrdU incorporation, renal cell carcinoma cells; format: cell-based
# [12] = fifteenth day of oral treatment, about 400 mg per meter squared per day; cited from earlier work
# anticoagulation = conditions: cited from earlier work
compound,measurement,setting,value
CC(=O)O[C@H]1C(=O)[C@@]2(C)[C@H]([C@H](OC(=O)c3ccccc3)[C@]3(O)C[C@H](OC(=O)[C@H](O)[C@@H](NC(=O)c4ccccc4)c4ccccc4)C(C)=C1C3(C)C)[C@]1(OC(C)=O)CO[C@@H]1C[C@@H]2O [paclitaxel],IC50,"FaDu cells; 96 h, +IPTG cells, read-out: IC50 of paclitaxel, clone #1",2.42 nM
same,IC50,"FaDu cells; 96 h, +IPTG cells, read-out: IC50 of paclitaxel, clone #2",2.53 nM
same,IC50,"FaDu cells; 96 h, +antisense cells (no IPTG), read-out: IC50 of paclitaxel, clone #1",2.46 nM
same,IC50,"FaDu cells; 96 h, +antisense cells (no IPTG), read-out: IC50 of paclitaxel, clone #2",2.87 nM
same,IC50,"FaDu cells; 96 h, +sense +IPTG cells, read-out: IC50 of paclitaxel, clone #1",2.56 nM
same,IC50,"FaDu cells; 96 h, +sense +IPTG cells, read-out: IC50 of paclitaxel, clone #2",2.21 nM
same,IC50,"FaDu cells; 96 h, Control cells, read-out: IC50 of paclitaxel, clone #1",2.04 nM
same,IC50,"FaDu cells; 96 h, Control cells, read-out: IC50 of paclitaxel, clone #2",2.05 nM
same,IC50,"FaDu cells; +antisense +IPTG cells (IPTG 44 days), read-out: IC50 of paclitaxel, clone #1",1.3 nM
same,IC50,"FaDu cells; +antisense +IPTG cells (IPTG 57 days), read-out: IC50 of paclitaxel, clone #2",1.33 nM
same,median time to reach moribundity,"[1]; Kaplan Meier analysis, monitored for 100 days",42 days
same,% Apoptotic cells per tumor,"[1]; day 10 tumors, Mean ± SD",30 ± 17%^a
same,Number of apoptotic cells per 400x field,"[1]; day 10 tumors, Mean ± SD",66 ± 34^a
same,Number of nonapoptotic cells per 400x field,"[1]; day 10 tumors, Mean ± SD",168 ± 53^a
same,"End-of-experiment body weight, % of pretreatment value","[1]; mouse, in vivo",97 ± 6^a % of pretreatment value
same,body weight loss compared to the pretreatment weight,"[1]; mouse, in vivo",< 3%
same,tumor-free survivors,[1]; of 12 animals,did not show tumor-free survivors
same,toxicity-related death,[1]; single agents,no toxicity-related death
"Cc1ccc(C(=O)Nc2ccc(S(=O)(=O)O)c3cc(S(=O)(=O)O)cc(S(=O)(=O)O)c23)cc1NC(=O)c1cccc(NC(=O)Nc2cccc(C(=O)Nc3cc(C(=O)Nc4ccc(S(=O)(=O)O)c5cc(S(=O)(=O)O)cc(S(=O)(=O)O)c45)ccc3C)c2)c1 [Suramin, suramin]",IC50,"telomerase [2]; MCF7, cell extract",2800 ± 1500 nM
same,IC50,"telomerase [2]; PC3, cell extract",1600 ± 700 nM
same,IC50,"telomerase [3]; FaDu, intact cell",1700 ± 1000 nM
same,IC50,"telomerase [3]; MCF7, intact cell",1400 ± 1100 nM
same,IC50,"telomerase [3]; PC3, intact cell",2300 ± 900 nM
same,telomere shortening,[4],about 30%
same,IC50,telomerase [5],< 10 µM
same,bodyweight increase compared with saline,FaDu tumor; 10 mg/kg iv twice a week,undistinguishable rates of bodyweight increases
same,tumor establishment rate,FaDu tumor; 10 mg/kg iv twice a week from implantation,100%
same,fraction of cells with a reduced or eliminated telomere signal,"FaDu tumor; first two weeks of treatment, 10 mg/kg iv twice a week",approximately 10%
same,fraction of cells with a reduced or eliminated telomere signal,"FaDu tumor; week 3, 10 mg/kg iv twice a week",approximately 40%
same,fraction of cells with a reduced or eliminated telomere signal,"FaDu tumor; week 4, 10 mg/kg iv twice a week",75%
same,fraction of cells with a reduced or eliminated telomere signal,"FaDu tumor; week 5, 10 mg/kg iv twice a week",over 80%
same,fraction of cells with a reduced or eliminated telomere signal,"FaDu tumor; week 6, 10 mg/kg iv twice a week",95%
same,tumor outcome,FaDu tumors,completely disappeared
same,terminal half-life,[6]; 6.75 mg/kg,13 days
same,half-life,"[6]; beagle, dog, plasma, read-out: terminal half-life (converted)",13 days
same,clearance,"[6]; beagle, dog, plasma, read-out: total clearance (converted)",2.1 mL/h/kg
same,suramin concentration in the bladder contents,[7]; 120 minutes after intravesical 6 mg/ml,3.6 mg/mL
same,plasma concentrations,"[7]; at all times, intravesical 6 mg/ml",less than 0.1 μg/ml
same,concentration at 120 min,"[7]; at 0 mm (urethral surface), 120 minutes, read-out: bladder wall tissue concentration",~80000 ng/g
same,concentration at 120 min,"[7]; at approximately 2 mm depth, read-out: bladder wall tissue concentration",~3000 ng/g
same,concentration at 120 min,"[7]; remainder of the bladder wall, read-out: bladder wall tissue concentration",~3000 ng/g
same,concentration at 120 min,"[7]; summary of Example 13, read-out: concentrations in the targeted tissues after local administration",5000 to 100000 ng/g
same,"half-life, first phase of triphasic plasma decline",[8],5.5 h
same,"half-life, second phase of triphasic plasma decline",[8],4.1 days
same,"half-life, third phase of triphasic plasma decline",[8],78 days
same,total body clearance,[8],0.0095 liter/hour/m^2
same,concentration at 72 h,in vivo,~10 µM and ~14000 ng/mL
O=c1[nH]cc(F)c(=O)[nH]1 [5-fluorouracil],IC50,"RCC45; RCC45, No PPS",7.58 µM
same,IC50,"RCC45; RCC45, With 10 μg/ml PPS",5.15 µM
same,IC50,"RCC54; RCC54, No PPS",7.27 µM
same,IC50,"RCC54; RCC54, With 10 μg/ml PPS",4.65 µM
same,IC50,"RCC54; RCC54, With 10 μg/ml PPS plus 30 μM suramin",2.34 µM
same,IC50,"RCC54; RCC54, With 100 μg/ml PPS",3.58 µM
paclitaxel/carboplatin,MST,[9],8.1 months
same,TTP,[9],3.1 months
same,complete response,[9],< 1%
same,overall response rate,[9],about 17%
pentosan polysulfate [PPS],concentration resulting in 50% inhibition of telomerase activity,telomerase [10]; FaDu cells,0.56 µg/mL
same,concentration resulting in 50% inhibition of telomerase activity,telomerase [10]; SKOV-3 cells,0.60 µg/mL
same,concentrations resulting in 80% inhibition of telomerase activity,telomerase [10]; both cells (FaDu and SKOV-3),less than 10 μg/ml
same,concentrations resulting in 90% inhibition of telomerase activity,telomerase [10]; both cells (FaDu and SKOV-3),less than 100 μg/ml
same,concentrations required for 50% inhibition of telomerase activity,telomerase [10]; summary of Example 3,0.5 to 0.6 µg/mL
same,IC50 of PPS as a single agent,"[11]; 96 hours, BrdU incorporation","~1,400 μg/ml"
same,cytotoxicity of PPS,[11]; at 10 and 100 μg/ml,no cytotoxicity
same,plasma concentrations,[12],200 to 460 ng/mL
same,concentrations at which anticoagulation is found,anticoagulation,above 1 μg/ml
